# Several values for one entry are separate records, joined by “and”; a condition that tells them apart may be missing. Equal entries are not always repeated. Entries after “also recorded” stand apart in the source; their conditions may differ. Where two headings read alike, the source gives them in different places.
# Key:
# [1] = system: Fusarium conidial suspension; assay: Fusarium viability colorimetric assay (PrestoBlue resazurin); format: cell-based
# Method: A Fusarium conidial suspension was prepared from a 7-day culture of Fusarium biomass grown on potato dextrose agar for 7 days, and quantified by hemocytometer, as described in Example 4. Solutions of fenpiclonil (Millipore Sigma, Cat. no. 36532) and of the individual peptides were prepared in 50% (w/v) ethanol in water, and tested using a PrestoBlue™ (resazurin) viability colorimetric assay as described in Example 4.
# The Fusarium conidial suspension, peptide or control treatment solution, and potato dextrose broth (Alpha Biosciences, catalogue no. P16-126) were added to each well of a 96-well plate to obtain the desired treatment concentration and 1×10^6 conidia/mL in a final volume of 150 microliters per well. The plates were covered and incubated at 30° C. for 18 hours and 200 rpm. Fifteen microliters of PrestoBlue™ Cell Viability Reagent (Thermofisher Scientific, Cat no. A13262) were added to each well, and the plate was further incubated before measuring fluorescence at 590 nm emission with excitation at 560 nm using a spectrophotometer (BioTek Synergy H1 Microplate Reader, Fischer Scientific, Cat. no. 11-120-533).
# [2] = system: conidia of Fusarium proliferatum; assay: oCelloScope live-cell imaging of fungal growth (SESA algorithm); format: cell-based
# [3] = system: Botrytis cinarea (strain CBS 261.71); assay: Botrytis viability colorimetric assay (PrestoBlue resazurin); format: cell-based, Botrytis cinerea; settings: for viability decrease relative to that obtained with the positive control (fenpiclonil): sentence prints Fusarium in the Botrytis assay
# [4] = system: Aspergillus fumigatus CBS 120.53; assay: Micro broth dilution assay in 96-well plates; format: cell-based; settings: 3 days of incubation; 375 micromolar or 187.5 micromolar; preliminary
# [5] = system: Aspergillus flavus DSM 1959; assay: Micro broth dilution assay in 96-well plates; format: cell-based; settings: 3 days of incubation; 375 micromolar or 187.5 micromolar; preliminary
# [6] = system: Rhizomucor miehei CBS 147454; assay: Micro broth dilution assay in 96-well plates; format: cell-based; settings: 3 days of incubation; 375 micromolar or 187.5 micromolar; preliminary
# [7] = system: Cryptococcus neoformans DSM 70219; assay: Micro broth dilution assay in 96-well plates; format: cell-based; settings: 2 days of incubation; 375 micromolar; preliminary
# [8] = system: Mucor circinelloides f. janssenii CBS 204.68; assay: Micro broth dilution assay in 96-well plates; format: cell-based; settings: 3 days of incubation; 375 micromolar or 187.5 micromolar; preliminary
# [9] = system: Fusarium oxysporum CBS 130311; assay: Micro broth dilution assay in 96-well plates; format: cell-based; settings: 3 days of incubation; 375 micromolar or 187.5 micromolar; preliminary
# Botrytis cinerea = assay: Fungal lesion size on detached Nicotiana benthamiana leaves after topical treatment; format: in vivo, Botrytis cinerea on Nicotiana benthamiana leaves
# Method: In one experiment, leaves of similar age were cut from healthy Nicotiana benthamiana plants and the petioles set into plates containing water agar. Leaves were visually divided into quadrants. […] The plates were covered and placed in a humidified secondary container and incubated in a growth chamber under a 14-hour light (20 degrees C.): 10-hour dark (18 degrees C.) cycle. After 11 days, fungal lesions on leaves were photographed and measured manually with a ruler. Leaves were then destained in 70% ethanol for 48 hours with a change of ethanol at 24 hours, rehydrated in water for at least 1 hour, photographed, and the area of the fungal lesions quantified using ImageJ software (see imagej[dot]nih[dot]gov/ij/). […] The leaf quadrants inoculated with B. cinerea and treated with 100 microliters of treatment solution (MES buffer or HH38 in MES buffer) had comparatively larger areas wetted with liquid. All of the leaf quadrants treated with 5 mM MES buffer developed large (average 1.72 cm width) fungal lesions characterized by grey-black fungal growth. […] […] Twenty microliters of a given treatment mixture were pipetted onto a leaf quadrant (3 replicate leaves per treatment for a total of 12 quadrants). After 7 days incubation in a growth chamber, leaves were photographed, destained in 70% ethanol, photographed again, and the area of the fungal lesions quantified using ImageJ software. […] The fungal lesions in the HH38 treatment were also observed to be 39% smaller than in the 2% DMSO treatment, and 19% smaller than in the 5 mM MES treatment, although not to a statistically significant degree using an unpaired t test.
# [10] = 375 micromolar, four replicates
# [11] = first experiment, 275 micromolar HH38 in 5 mM MES buffer, after 11 days, lesion area by ImageJ, replicate leaves 1-3
# [12] = first experiment, 275 micromolar HH38 in 5 mM MES buffer, after 11 days, ruler, replicate leaves 1-3
# [13] = second experiment, inoculum pre-mixed with HH38, 7 days, ImageJ area, not statistically significant
Sequence,Fusarium cell viability versus untreated / 50% ethanol carrier [1],"Percent Inhibition (Fusarium), Experiment 4, Mean [1] [%]","Percent Inhibition (Fusarium), Experiment 5, Mean [1] [%]","Percent Inhibition (Botrytis), Mean [3, 10] [%]",inhibition of growth / growth pattern [4],inhibition of growth / growth pattern [5],inhibition of growth / growth pattern [6],"SESA value normalized against the untreated control, mean (x) ([2]; 22 hours)",growth / growth pattern [7],inhibition of growth / growth pattern [8],inhibition of growth / growth pattern [9],statistical comparison of normalized values with the untreated control [2],statistical significance of antifungal activity [2],Botrytis cell viability versus untreated / 50% ethanol carrier ([3]; 375 micromolar),viability decrease relative to that obtained with the positive control (fenpiclonil) ([3]; 375 micromolar),also measured
WKMGQYHQLPPLW [SEQ ID NO: 2185],greatly decreased Fusarium cell viability to about the same level as did the positive control,70.84,69.60,52.30,,,,,,,,,,,,"SESA value normalized against the untreated control, mean (x) ([2]; 250 micromolar (nominal, filtered), 22 hours, 30% potato dextrose broth): 0.850; SESA value normalized against the untreated control, mean (x) ([2]; 375 micromolar (nominal, filtered), 22 hours, 30% potato dextrose broth): 0.439; statistical comparison of normalized values with the untreated control ([2]; nominal concentration of 375 micromolar): significantly lower than the untreated control"
"WCGRPGQPC (REGION 1..9: note = Botrytis spp.) [SEQ ID NO: 2183, Botrytis cinerea alpha pheromone]",decreasing Fusarium cell viability; also recorded: decreased Fusarium cell viability; also recorded: less pronounced,46.67,42.81,−22.63,No inhibition of growth,No inhibition of growth,No inhibition of growth,1.540 and 1.743,reduced growth,No inhibition of growth,No inhibition of growth,,,,,
"GWHWLQLKPGQPMY (listed as Saccharomyces cerevisiae) [SEQ ID NO: 2187, Saccharomyces cerevisiae alpha pheromone with N-terminal glycine]",,,66.96,66.96,,,,0.519 and 0.367,,,,significantly lower than the untreated control,statistically significant antifungal activity,,,
"WHWLQLKPGQPMY (listed as Saccharomyces cerevisiae) [SEQ ID NO: 2184, Saccharomyces cerevisiae alpha pheromone]",,66.33,62.01,45.14,No inhibition of growth,No inhibition of growth,No inhibition of growth,,reduced growth,No inhibition of growth,No inhibition of growth,significantly lower than the untreated control,statistically significant antifungal activity,decreased Botrytis cell viability,roughly about two-thirds of the viability decrease obtained using the positive control,
"WHWLQLKPGQPMYGGGGSWHWLQLKPGQPMY (listed as Saccharomyces cerevisiae) [SEQ ID NO: 2189, Saccharomyces cerevisiae alpha pheromone homodimer including glycine linker]",,,79.77,79.77,sometimes induced changes in growth pattern,sometimes induced changes in growth pattern,sometimes induced changes in growth pattern,,change this species' growth pattern,sometimes induced changes in growth pattern,sometimes induced changes in growth pattern,,statistically significant antifungal activity,reducing Botrytis cell viability as well as did the fenpiclonil treatment,roughly about two-thirds of the viability decrease obtained using the positive control,"Lesion 1 (cm) (Botrytis cinerea; first experiment, 275 micromolar HH38 in 5 mM MES buffer, 100 microliters per inoculated leaf quadrant, after 11 days, measured with a ruler, replicate leaves 1-3): 0 cm; Lesion 1 (pixels) (Botrytis cinerea; first experiment, 275 micromolar HH38 in 5 mM MES buffer, after 11 days, destained leaves, lesion area by ImageJ, replicate leaves 1-3): 0 pixels; Treatment Average (pixels) (Botrytis cinerea; first experiment, 275 micromolar HH38 in 5 mM MES buffer, after 11 days, lesion area by ImageJ, average of 3 leaves): 157 pixels; Replicate Averages (pixels) (Botrytis cinerea; first experiment, 275 micromolar HH38 in 5 mM MES buffer, after 11 days, lesion area by ImageJ, average of 4 quadrants): 0.00 pixels (2×) and 472 pixels; Lesion 2 (pixels) (Botrytis cinerea; [11]): 0 pixels (2×) and 1889 pixels; Lesion 3 (pixels) (Botrytis cinerea; [11]): 0 pixels; Lesion 4 (pixels) (Botrytis cinerea; [11]): 0 pixels; Treatment Average (cm) (Botrytis cinerea; first experiment, 275 micromolar HH38 in 5 mM MES buffer, after 11 days, ruler, average of 3 leaves): 0.042 cm; Average (cm) per replicate leaf (Botrytis cinerea; first experiment, 275 micromolar HH38 in 5 mM MES buffer, after 11 days, ruler, average of 4 quadrants): 0 cm (2×) and 0.12 cm; Lesion 2 (cm) (Botrytis cinerea; [12]): 0 cm (2×) and 0.5 cm; Lesion 3 (cm) (Botrytis cinerea; [12]): 0 cm; Lesion 4 (cm) (Botrytis cinerea; [12]): 0 cm; leaf quadrants that developed any measurable fungal lesion (Botrytis cinerea; first experiment, result sentence prints 375 micromolar HH38 (method: 275 micromolar), after 11 days): 1 out of 12; fungal lesions smaller than in the 5 mM MES treatment (Botrytis cinerea; [13]): 19%; fungal lesions smaller than in the 2% DMSO treatment (Botrytis cinerea; [13]): 39%; fungal lesions smaller than the untreated (diluted grape juice) control (Botrytis cinerea; second experiment, inoculum pre-mixed with in 2% DMSO in 5 mM MES buffer, 7 days, ImageJ area, statistically significant (unpaired t test)): 44%"
WCTWKGQPCW [SEQ ID NO: 2182],decreasing Fusarium cell viability; also recorded: decreased Fusarium cell viability; also recorded: less pronounced,47.78,28.39,,,,,,,,,,,,,"SESA value normalized against the untreated control, mean (x) [2]: 1.554 and 1.510; Botrytis cell viability versus untreated / 50% ethanol carrier [3]: decreased Botrytis cell viability; Percent Inhibition (Botrytis), Mean [3]: 8.56%"
"WHWLQLKPGQPMYWHWLQLKPGQPMY (listed as Saccharomyces cerevisiae) [SEQ ID NO: 2188, Saccharomyces cerevisiae alpha pheromone homodimer with no linker]",,,71.82,71.82,,,,0.330 and 0.351,,,,,statistically significant antifungal activity,reducing Botrytis cell viability as well as did the fenpiclonil treatment,roughly about two-thirds of the viability decrease obtained using the positive control,
"WHWLQLKPGQPMYG (listed as Saccharomyces cerevisiae) [SEQ ID NO: 2186, Saccharomyces cerevisiae alpha pheromone with C-terminal glycine]",greatly decreased Fusarium cell viability to about the same level as did the positive control,64.21,66.45,47.30,,,,1.119 and 0.742,,,,significantly lower than the untreated control,statistically significant antifungal activity,,,
